Among the data in patent US20260053834A1, “COVALENT MODIFIERS OF AKT1 AND USES THEREOF” (Terremoto Biosciences, Inc., priority 2023, published 2026) are IC50 values, retold here.

One assay addresses T1, AKT1 WT (Homo sapiens, UniProt P31749).
T1 construct: expressed in transfected cells; host or cells: HEK293
The experiment in a line: Live cell target engagement by NanoBRET competitive probe displacement, AKT1 WT. The format is binding. The note with it: transfected HEK293 cells, 2 h at 37° C., read-out: AKT1 WT IC50: GeoMean IC50. The protocol:
(§1) Determining live cell AKT1 E17K, AKT1 WT, and AKT2 target engagement by NanoBRET competitive probe displacement. Live cell target engagement assays were performed as described (Vasta, J. D. et al. Cell Chem Biol 2018, 25(11), 206-214). Briefly, HEK293 cells were transfected with plasmids encoding kinase-NanoLuciferase fusion proteins overnight. Cells were then treated with serial dilutions of compound and an ˜EC50 concentration of fluorescently-tagged ATP-competitive tracer (Promega). After incubation for 2 h at 37° C., luciferase substrate and extracellular luciferase inhibitor were added to all wells, and luminescent intensity at 460 nm and 600 nm were measured on a multimode plate-reader. The ratio of E600/E460 was calculated to give the tracer engagement signal (BRET). IC50 values were calculated by fitting BRET values to a log(inhibitor) vs. response Hill equation.

For a further assay, the target named is T2, AKT1 E17K (Homo sapiens, UniProt P31749, E17K).
T2 construct: expressed in transfected cells; host or cells: HEK293
T2 sequence (P31749 whole entry E17K): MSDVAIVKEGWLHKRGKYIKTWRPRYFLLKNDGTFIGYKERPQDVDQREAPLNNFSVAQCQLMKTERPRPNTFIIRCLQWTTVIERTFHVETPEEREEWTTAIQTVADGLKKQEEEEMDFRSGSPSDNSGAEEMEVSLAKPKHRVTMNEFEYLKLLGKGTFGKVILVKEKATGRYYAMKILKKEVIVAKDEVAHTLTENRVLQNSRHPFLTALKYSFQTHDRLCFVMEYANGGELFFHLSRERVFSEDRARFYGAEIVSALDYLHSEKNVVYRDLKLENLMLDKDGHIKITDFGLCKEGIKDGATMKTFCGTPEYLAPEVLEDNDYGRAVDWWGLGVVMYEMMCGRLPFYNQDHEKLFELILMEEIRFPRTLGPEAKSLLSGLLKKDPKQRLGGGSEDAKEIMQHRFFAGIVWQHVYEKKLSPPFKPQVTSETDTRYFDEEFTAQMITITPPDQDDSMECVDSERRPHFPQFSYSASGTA
The experiment in a line: Live cell target engagement by NanoBRET competitive probe displacement, AKT1 E17K. The format is binding. The conditions noted are these: transfected HEK293 cells, 2 h at 37° C., read-out: AKT1 E17K IC50: GeoMean IC50. The protocol:
as §1
Background: In BRET a luciferase serves as donor, and the signal depends on an acceptor being close.

The test system of assay [1] is LAPC4 prostate cancer cells, which express the AKT1 E17K allele. Nature of the assay: Antiproliferative effects in LAPC4 cells (CellTiter Glo, 72 h). The format is cell-based. The note with it: Homo sapiens, LAPC4, 72 h, read-out: LAPC4 proliferation IC50: GeoMean IC50. Here is the method:
Antiproliferative effects in LAPC4 cells. LAPC4 prostate cancer cells (Klein, K. A. et al. Nat Med 1997, 3, 402-408), which express the AKT1 E17K allele, were grown in IMDM media (Hyclone) supplemented with 12% FBS+1% P/S. To assess compound effects on growth, 1,000 cells/well were seeded in 384 well assay plates, incubated with compound dilutions dissolved in DMSO. After 72 h, intracellular ATP content was assessed with CellTiter Glo reagent (Promega) according to the manufacturer's instructions. IC50 values were calculated by fitting luminescence values to a log(inhibitor) vs. response Hill equation.
(ATP-based viability assays read luminescence as a measure of living cells.)

For the next assay, the target named is T3, AKT2 (Homo sapiens, UniProt P31751).
T3 construct: expressed in transfected cells; host or cells: HEK293
T3 sequence (P31751 whole entry): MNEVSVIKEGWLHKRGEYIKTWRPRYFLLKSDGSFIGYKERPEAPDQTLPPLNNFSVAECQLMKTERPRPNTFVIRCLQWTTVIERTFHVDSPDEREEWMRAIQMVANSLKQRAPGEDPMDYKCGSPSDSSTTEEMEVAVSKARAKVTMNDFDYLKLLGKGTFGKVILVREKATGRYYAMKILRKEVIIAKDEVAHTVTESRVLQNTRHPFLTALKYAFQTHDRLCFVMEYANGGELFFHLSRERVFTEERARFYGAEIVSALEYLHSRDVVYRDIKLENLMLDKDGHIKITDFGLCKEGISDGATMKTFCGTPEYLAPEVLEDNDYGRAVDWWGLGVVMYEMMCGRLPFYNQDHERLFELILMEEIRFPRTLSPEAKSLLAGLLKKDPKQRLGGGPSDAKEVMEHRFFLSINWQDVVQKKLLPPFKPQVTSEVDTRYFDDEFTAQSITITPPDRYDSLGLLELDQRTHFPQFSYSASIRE
Nature of the assay: Live cell target engagement by NanoBRET competitive probe displacement, AKT2. The class given is binding. The conditions noted are these: transfected HEK293 cells, 2 h at 37° C., read-out: AKT2 IC50: GeoMean IC50. Here is the method:
as §1

T1 sequence (P31749 whole entry): as the sequence (P31749 whole entry E17K) above, with K17E counted along it

For the compound `Nc1ncccc1-c1nc2ccc(-c3ccncc3)nc2n1-c1ccc2c(c1)CC[C@@H]2NC(=O)c1ccc(O)c(C=O)c1` [Example 24, N-[(1S)-5-[2-(2-aminopyridin-3-yl)-5-(pyridin-4-yl)imidazo[4,5-b]pyridin-3-yl]-2,3-dihydro-1H-inden-1-yl]-3-formyl-4-hydroxybenzamide], the IC50 on AKT1 WT was in the range of 10 to 100 nM; on AKT1 E17K, 10 to 100 nM; in assay [1] it was 10 to 100 nM; on AKT2, 100 to 2000 nM.

Turning to `Nc1ncccc1-c1nc2ccc(-c3ccccn3)nc2n1-c1ccc2c(c1)CC[C@@H]2NC(=O)c1ccc(O)c(C=O)c1` [Example 25, (S)—N-(5-(2-(2-aminopyridin-3-yl)-5-(pyridin-2-yl)-3H-imidazo[4,5-b]pyridin-3-yl)-2,3-dihydro-1H-inden-1-yl)-3-formyl-4-hydroxybenzamide], the IC50 at AKT1 WT was in the range of 10 to 100 nM; on AKT1 E17K it was 10 to 100 nM; in assay [1], 10 to 100 nM; at AKT2, 100 to 2000 nM.

As for `Nc1ncccc1-c1nc2ccc(-c3cccc(F)c3)nc2n1-c1ccc2c(c1)CC[C@@H]2NC(=O)c1ccc(O)c(C=O)c1` [Example 26, N-[(1S)-5-[2-(2-aminopyridin-3-yl)-5-(3-fluorophenyl)imidazo[4,5-b]pyridin-3-yl]-2,3-dihydro-1H-inden-1-yl]-3-formyl-4-hydroxybenzamide], the IC50 at AKT1 WT lay within 100 to 2000 nM; at AKT1 E17K it was 10 to 100 nM; in assay [1], 100 to 2000 nM; at AKT2, 100 to 2000 nM.

Take `Nc1ncccc1-c1nc2ccc(-c3ccccc3)nc2n1-c1ccc2c(c1)CCC2C(=O)Nc1ccc(O)c(C=O)c1` (centres unmarked) [Example 27, 5-[2-(2-aminopyridin-3-yl)-5-phenylimidazo[4,5-b]pyridin-3-yl]-N-(3-formyl-4-hydroxyphenyl)-2,3-dihydro-1H-indene-1-carboxamide]: the IC50 at AKT1 WT was in the range of 100 to 2000 nM; at AKT1 E17K, 10 to 100 nM; in assay [1], 100 to 2000 nM; on AKT2 it was 100 to 2000 nM.

With `Cn1cc(-c2ccc3nc(-c4cccnc4N)n(-c4ccc5c(c4)CC[C@@H]5NC(=O)c4ccc(O)c(C=O)c4)c3n2)cn1` [Example 28, (S)—N-(5-(2-(2-aminopyridin-3-yl)-5-(1-methyl-1H-pyrazol-4-yl)-3H-imidazo[4,5-b]pyridin-3-yl)-2,3-dihydro-1H-inden-1-yl)-3-formyl-4-hydroxybenzamide], the IC50 on AKT1 WT lay within 10 to 100 nM; at AKT1 E17K, 10 to 100 nM; in assay [1] it was 10 to 100 nM; at AKT2, 100 to 2000 nM.

For `Nc1ncccc1-c1nc2ccc(-c3cnccn3)nc2n1-c1ccc2c(c1)CC[C@@H]2NC(=O)c1ccc(O)c(C=O)c1` [Example 29, N-[(1S)-5-[2-(2-aminopyridin-3-yl)-5-(pyrazin-2-yl)imidazo[4,5-b]pyridin-3-yl]-2,3-dihydro-1H-inden-1-yl]-3-formyl-4-hydroxybenzamide], the IC50 on AKT1 WT was 10 to 100 nM; at AKT1 E17K, less than 10 nM; in assay [1], 10 to 100 nM; on AKT2 it was 100 to 2000 nM.

As to `Nc1ncccc1-c1nc2ccc(-c3ccccc3)nc2n1-c1ccc2c(c1)CC[C@@H]2NC(=O)c1ccc(C=O)c(O)c1` [Example 30, N-[(1S)-5-[2-(2-aminopyridin-3-yl)-5-phenylimidazo[4,5-b]pyridin-3-yl]-2,3-dihydro-1H-inden-1-yl]-4-formyl-3-hydroxybenzamide], the IC50 on AKT1 WT was 100 to 2000 nM; at AKT1 E17K it was 100 to 2000 nM; in assay [1], no less than 2000 nM; on AKT2, 100 to 2000 nM.

For `Nc1ncccc1-c1nc2ccc(-c3ccccc3)nc2n1-c1ccc2c(c1)CC[C@@H]2NC(=O)c1ccc(C=O)c(O)c1F` [Example 31, N-[(1S)-5-[2-(2-aminopyridin-3-yl)-5-phenylimidazo[4,5-b]pyridin-3-yl]-2,3-dihydro-1H-inden-1-yl]-2-fluoro-4-formyl-3-hydroxybenzamide], the IC50 was 10 to 100 nM at AKT1 WT, 10 to 100 nM at AKT1 E17K, 100 to 2000 nM in assay [1] and 100 to 2000 nM on AKT2.

For the compound `Nc1ncccc1-c1nc2ccc(OC3CC3)nc2n1-c1ccc2c(c1)CC[C@@H]2NC(=O)c1ccc(O)c(C=O)c1` [Example 32, N-[(1S)-5-[2-(2-aminopyridin-3-yl)-5-cyclopropoxyimidazo[4,5-b]pyridin-3-yl]-2,3-dihydro-1H-inden-1-yl]-3-formyl-4-hydroxybenzamide], the IC50 at AKT1 WT is 100 to 2000 nM; on AKT1 E17K it was 10 to 100 nM; in assay [1] it was 100 to 2000 nM; at AKT2, no less than 2000 nM.

`Nc1ncccc1-c1nc2ccc(-n3cccn3)nc2n1-c1ccc2c(c1)CC[C@@H]2NC(=O)c1ccc(O)c(C=O)c1` [Example 33, (S)—N-(5-(2-(2-aminopyridin-3-yl)-5-(1H-pyrazol-1-yl)-3H-imidazo[4,5-b]pyridin-3-yl)-2,3-dihydro-1H-inden-1-yl)-3-formyl-4-hydroxybenzamide]: the IC50 lay in the range of 10 to 100 nM on AKT1 WT, 10 to 100 nM at AKT1 E17K, 10 to 100 nM in assay [1] and 100 to 2000 nM at AKT2.

Turning to `Nc1ncccc1-c1nc2ccc(-c3ccccc3)nc2n1-c1ccc2c(c1)CC[C@@H]2NC(=O)c1cc(C=O)c(O)cc1Cl` [Example 34, N-[(1S)-5-[2-(2-aminopyridin-3-yl)-5-phenylimidazo[4,5-b]pyridin-3-yl]-2,3-dihydro-1H-inden-1-yl]-2-chloro-5-formyl-4-hydroxybenzamide], the IC50 at AKT1 WT was in the range of 10 to 100 nM; at AKT1 E17K, 10 to 100 nM; in assay [1], 100 to 2000 nM; on AKT2 it was 100 to 2000 nM.

For the compound `Nc1ncccc1-c1nc2ccc(-c3ccccc3)nc2n1-c1ccc2c(c1)CC[C@@H]2NC(=O)c1cc(C=O)c2[nH]ncc2c1` [Example 35, N-[(1S)-5-[2-(2-aminopyridin-3-yl)-5-phenylimidazo[4,5-b]pyridin-3-yl]-2,3-dihydro-1H-inden-1-yl]-7-formyl-1H-indazole-5-carboxamide], the IC50 at AKT1 WT was 10 to 100 nM; at AKT1 E17K it was less than 10 nM; in assay [1] it was less than 10 nM; at AKT2 it was 10 to 100 nM.

For `COc1cc(C(=O)N[C@H]2CCc3cc(-n4c(-c5cccnc5N)nc5ccc(-c6ccccc6)nc54)ccc32)cc(C=O)c1O` [Example 36, N-[(1S)-5-[2-(2-aminopyridin-3-yl)-5-phenylimidazo[4,5-b]pyridin-3-yl]-2,3-dihydro-1H-inden-1-yl]-3-formyl-4-hydroxy-5-methoxybenzamide], the IC50 is 10 to 100 nM on AKT1 WT, 10 to 100 nM at AKT1 E17K, 100 to 2000 nM in assay [1] and 100 to 2000 nM at AKT2.

With `Nc1ncccc1-c1nc2ccc(Br)nc2n1-c1ccc2c(c1)CC[C@@H]2NC(=O)c1ccc(O)c(C=O)c1` [Example 37, (S)—N-(5-(2-(2-aminopyridin-3-yl)-5-bromo-3H-imidazo[4,5-b]pyridin-3-yl)-2,3-dihydro-1H-inden-1-yl)-3-formyl-4-hydroxybenzamide], the IC50 at AKT1 WT is 100 to 2000 nM; on AKT1 E17K, 10 to 100 nM; in assay [1], 100 to 2000 nM; on AKT2 it was no less than 2000 nM.

As to `CN1CCN(c2ccc3nc(-c4cccnc4N)n(-c4ccc5c(c4)CC[C@@H]5NC(=O)c4ccc(O)c(C=O)c4)c3n2)CC1` [Example 38, (S)—N-(5-(2-(2-aminopyridin-3-yl)-5-(4-methylpiperazin-1-yl)-3H-imidazo[4,5-b]pyridin-3-yl)-2,3-dihydro-1H-inden-1-yl)-3-formyl-4-hydroxybenzamide], the IC50 was 100 to 2000 nM at AKT1 WT, 10 to 100 nM on AKT1 E17K, 100 to 2000 nM in assay [1] and no less than 2000 nM on AKT2.

Consider `Nc1ncccc1-c1nc2ccc(-c3ccccc3)nc2n1-c1ccc2c(c1)CC[C@@H]2Nc1nccc2c(C=O)c(O)ccc12` [Example 39, 1-{[(1S)-5-[2-(2-aminopyridin-3-yl)-5-phenylimidazo[4,5-b]pyridin-3-yl]-2,3-dihydro-1H-inden-1-yl]amino}-6-hydroxyisoquinoline-5-carbaldehyde], for which the IC50 (on AKT1 WT; at AKT1 E17K; in assay [1]; on AKT2) was 100 to 2000 nM each time.

On to `Nc1ncccc1-c1nc2ccc(-c3ccccc3)nc2n1-c1ccc2c(c1)CC[C@@H]2NC(=O)c1cc(C=O)c(O)cn1` [Example 40, N-[(1S)-5-[2-(2-aminopyridin-3-yl)-5-phenylimidazo[4,5-b]pyridin-3-yl]-2,3-dihydro-1H-inden-1-yl]-4-formyl-5-hydroxypyridine-2-carboxamide], for which the IC50 is 100 to 2000 nM on AKT1 WT, no less than 2000 nM at AKT1 E17K, no less than 2000 nM in assay [1] and no less than 2000 nM on AKT2.
